Experimental data from ChEMBL document CHEMBL1649544, “Novel ABC transporter gene, vga(C), located on a multiresistance plasmid from a porcine methicillin-resistant Staphylococcus aureus ST398 strain” (2009).
≈ marks a conversion by molar mass, not a printed value.

Tests used:
Assay type in all cases: functional
[1] = test system: Staphylococcus aureus; assay: Antibacterial activity against Staphylococcus aureus RN4220 by CLSI method
[2] = test system: Staphylococcus aureus; assay: Antibacterial activity against Staphylococcus aureus RN4220 harboring aadD, tet(L), dfrK and vga(C) gene by CLSI method
[3] = test system: Staphylococcus aureus; assay: Antibacterial activity against Staphylococcus aureus RN4220 harboring tet(L), dfrK gene by CLSI method
[4] = test system: Staphylococcus aureus; assay: Antibacterial activity against Staphylococcus aureus RN4220 harboring aadD and tet(L) gene by CLSI method

Row | SMILES | MIC [1] [µg/mL] | MIC [2] [µg/mL] | MIC [3] [µg/mL] | MIC [4] [µg/mL]
1 | CCC[C@@H]1C[C@@H](C(=O)N[C@@H]([C@H]2O[C@H](SC)[C@H](O)[C@@H](O)[C@H]2O)[C@H](C)Cl)N(C)C1 [CLINDAMYCIN] | ≤ 0.12 | 2 (≈ 4.71 µM) | – | –
2 | CC[C@H]1OC(=O)[C@H](C)[C@@H](O[C@H]2C[C@@](C)(OC)[C@@H](O)[C@H](C)O2)[C@H](C)[C@@H](O[C@@H]2O[C@H](C)C[C@H](N(C)C)[C@H]2O)[C@](C)(O)C[C@@H](C)C(=O)[C@H](C)[C@@H](O)[C@]1(C)O [ERYTHROMYCIN] | 0.25 (≈ 0.341 µM) | 0.25 (≈ 0.341 µM) | 0.25 (≈ 0.341 µM) | 0.25 (≈ 0.341 µM)
3 | NC[C@@H]1O[C@H](O[C@H]2[C@@H](O)[C@H](O[C@@H]3[C@@H](O)[C@H](N)C[C@H](N)[C@H]3O[C@H]3O[C@H](CN)[C@@H](O)[C@H](O)[C@H]3N)O[C@@H]2CO)[C@H](N)[C@@H](O)[C@@H]1O [FRAMYCETIN] | ≤ 1 | 64 (≈ 104 µM) | – | 64 (≈ 104 µM)
4 | NC[C@H]1O[C@H](O[C@H]2[C@H](O)[C@@H](O[C@H]3O[C@H](CO)[C@@H](O)[C@H](N)[C@H]3O)[C@H](N)C[C@@H]2N)[C@H](O)[C@@H](O)[C@@H]1O [KANAMYCIN] | 4 (≈ 8.26 µM) | 32 (≈ 66 µM) | 4 (≈ 8.26 µM) | 32 (≈ 66 µM)
5 | CCC[C@@H]1C[C@@H](C(=O)N[C@@H]([C@H]2O[C@H](SC)[C@H](O)[C@@H](O)[C@H]2O)[C@@H](C)O)N(C)C1 [LINCOMYCIN] | 1 (≈ 2.46 µM) | 64 (≈ 157 µM) | 1 (≈ 2.46 µM) | 1 (≈ 2.46 µM)
6 | CC[C@@H]1CCN[C@H](C(=O)N[C@@H]([C@H]2O[C@H](SC)[C@H](O)[C@@H](O)[C@H]2O)[C@H](C)Cl)C1 [PIRLIMYCIN] | 0.25 (≈ 0.608 µM) | 4 (≈ 9.73 µM) | 0.25 (≈ 0.608 µM) | 0.25 (≈ 0.608 µM)
7 | CN(C)[C@@H]1C(O)=C(C(N)=O)C(=O)[C@@]2(O)C(O)=C3C(=O)c4c(O)cccc4[C@@](C)(O)[C@H]3C[C@@H]12 [TETRACYCLINE] | 0.06 (≈ 0.135 µM) | 64 (≈ 144 µM) | 64 (≈ 144 µM) | 64 (≈ 144 µM)
8 | C=C[C@]1(C)C[C@@H](OC(=O)CSCCN(CC)CC)[C@]2(C)[C@H](C)CC[C@]3(CCC(=O)[C@H]32)[C@@H](C)[C@@H]1O [TIAMULIN] | 0.06 (≈ 0.122 µM) | ≥ 128 | 0.06 (≈ 0.122 µM) | 0.06 (≈ 0.122 µM)
9 | COc1cc(Cc2cnc(N)nc2N)cc(OC)c1OC [TRIMETHOPRIM] | 0.5 (≈ 1.72 µM) | ≥ 512 | ≥ 512 | 0.5 (≈ 1.72 µM)
10 | C=C[C@]1(C)C[C@@H](OC(=O)CSC(C)(C)CNC(=O)[C@H](N)C(C)C)[C@]2(C)[C@H](C)CC[C@]3(CCC(=O)[C@H]32)[C@@H](C)[C@@H]1O [VALNEMULIN] | 0.03 (≈ 0.0531 µM) | ≥ 128 | 0.03 (≈ 0.0531 µM) | 0.03 (≈ 0.0531 µM)
11 | CC1=C\[C@@H](O)CC(=O)Cc2nc(co2)C(=O)N2CCC=C2C(=O)O[C@H](C(C)C)[C@H](C)/C=C/C(=O)NC\C=C\1 [VIRGINIAMYCIN FACTOR M1] | 4 (≈ 7.61 µM) | 32 (≈ 60.9 µM) | 4 (≈ 7.61 µM) | 4 (≈ 7.61 µM)
